What all share (assay type): biochemical
In assay [1] the target is T1, HCV NS3/4A protease complex, BMS strain (genotype 1a) (Hepatitis C virus genotype 1a, UniProt P27958, C1454S/C1711G).
T1 construct: recombinant HCV NS3/4A protease complex (amino'acids 1027 to 1711); inferred from the pET21b vector and Ni-NTA purification; made in house; host or cells: Escherichia coli BL21 (DE3), pET21b
Nature of the assay: Recombinant HCV NS3/4A protease complex FRET peptide assay (BMS strain). In outline: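 Enzyme was NS3/4A complex (aa 1027-1711) from genotype 1a BMS strain, carrying C1454S and C1711G mutations plus a three-lysine tail, expressed in E. coli and Ni-NTA/size-exclusion purified to >90% purity.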

In assay [2] the test system is human pancreatic chymotrypsin. Nature of the assay: Specificity assay, chymotrypsin. The note with it: 2 hr pre-incubation. As for the experimental part: (§1) The specificities of compounds of the present invention were determined against a variety of serine proteases: human neutrophil elastase (HNE), porcine pancreatic elastase (PPE) and human pancreatic chymotrypsin and one cysteine protease: human liver cathepsin B. In all cases a 96-well plate format protocol using colorimetric p-nitroaniline (pNA) substrate specific for each enzyme was used as described previously (U.S. Pat. No. 6,323,180) with some modifications to the serine protease assays. All enzymes were purchased from Sigma while the substrates were from Bachem.
(§2) Each assay included a 2 hr enzyme-inhibitor pre-incubation at RT followed by addition of substrate and hydrolysis to ˜30% conversion as measured on a Spectramax Pro microplate reader. Compound concentrations varied from 100 to 0.4 μM depending on their potency. […]
(§3) The percentage of inhibition was calculated using the formula: [1−((UVinh−UVblank)/(UVctl−UVblank))]×100 […]

The target of the next assay is T2, human liver cathepsin B (Homo sapiens, UniProt P07858).
T2 construct: purchased Sigma; host or cells: human liver (as named)
As to the kind of experiment: Specificity assay, cathepsin B. The note with it: 2 hr pre-incubation. As for the experimental part: as §1, §2, §3

Structures can show the parent of a compound that is named as a salt. Bounds are passed on as bounds.

T1 sequence (P27958 1027-1711 C1454S/C1711G, one chain of several): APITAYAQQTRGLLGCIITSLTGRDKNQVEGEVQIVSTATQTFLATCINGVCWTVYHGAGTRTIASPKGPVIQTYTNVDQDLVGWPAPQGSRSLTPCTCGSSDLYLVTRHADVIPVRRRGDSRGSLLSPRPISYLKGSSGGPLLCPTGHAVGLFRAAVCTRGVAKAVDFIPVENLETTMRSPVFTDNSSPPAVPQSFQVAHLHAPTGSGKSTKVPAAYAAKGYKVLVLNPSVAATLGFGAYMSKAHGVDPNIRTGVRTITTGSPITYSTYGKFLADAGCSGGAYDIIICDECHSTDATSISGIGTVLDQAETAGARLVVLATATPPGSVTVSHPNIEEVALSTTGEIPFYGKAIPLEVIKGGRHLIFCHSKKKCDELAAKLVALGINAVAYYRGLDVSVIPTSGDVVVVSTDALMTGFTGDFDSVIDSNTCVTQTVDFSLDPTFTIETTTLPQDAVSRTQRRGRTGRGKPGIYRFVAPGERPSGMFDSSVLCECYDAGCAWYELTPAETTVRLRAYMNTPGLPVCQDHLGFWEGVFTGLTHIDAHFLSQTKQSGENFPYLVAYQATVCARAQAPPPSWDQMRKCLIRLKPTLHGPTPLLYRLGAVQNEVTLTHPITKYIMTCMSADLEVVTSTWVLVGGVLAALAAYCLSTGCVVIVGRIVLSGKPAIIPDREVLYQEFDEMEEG

`COc1ccc2c(O[C@@H]3C[C@H]4C(=O)N[C@]5(C(=O)NS(=O)(=O)C6CC6)CC5/C=C/CCCC[C@H](N)C(=O)N4C3)cc(-c3ccccc3)nc2c1` (stereo partly drawn) [Compound 6, (1S,4R,6S,13S,17R)-7-trans-Cyclopropanesulfonic acid [13-amino-17-(7-methoxy-2-phenylquinolin-4-yloxy)-2,14-dioxo-3,15-diazatricyclo[13.3.0.0^4,6]octadec-7-ene-4-carbonyl]amide dihydrochloride]: the IC50 was under 50 nM in assay [1] (IC50, HCV NS3/4A protease FRET assay in vitro, IC50 ranges); 21 nM in assay [1] (IC50, against the BMS HCV NS3/4A complex); over 100000 nM in assay [2]; over 100000 nM against human liver cathepsin B.

As usually defined, the IC50 is the concentration that gives 50% inhibition.

For the origin of these results see patent US6867185B2 (Bristol-Myers Squibb Company, priority 2001, dated 2005).
